Test results taken from paper PMC9411606, “Control cell migration by engineering integrin ligand assembly” (Nature Communications, 2022).
“Also recorded” adds a separate entry of the source.

What was measured:
[1] = system: integrin knockdown HuH-7 cells; assay: Wound healing assay, integrin knockdown HuH-7; assay type: cell-based, human; settings: 48 hr wound healing, 100 µM, n = 6
Experimental: Healthy cells were seeded in 96-well Image Lock plates (Essen Bioscience, UK). Each well contained 2 ×10^4 to 5 × 10^4 cells in 100 μL of complete cell culture medium. Cell monolayer with approximately 90% confluence formed after 12 hr and cells were next starved in serum-free culture medium for 12 hrs. Homogenous scratch wounds with a width of about 700 μm were made by an Essen BioScienceWound Maker. The detached cells were washed with Dulbecco’s Buffered Saline (DPBS, Gibco) 3 times. Cells were incubated with 100 μL of culture medium containing 0.5 % FBS and desired concentration of each peptide. Wound closure was monitored by an IncucyteS3 (Essen Bioscience) with a 10x objective. Images for each well were acquired every 2 hr to 8 hr for 2 days or until the wounds were closed completely. The wound healing rate was quantified by Incucyte Scratch Wound Analysis Module (Essen Bioscience). The experiments were repeated at least 3 times, and the results were presented as mean ± standard deviation of at least 3 independent experiments.
Integrin β1 shRNA plasmid (#sc-29375-SH), Integrin α3 shRNA plasmid (#sc-35684-SH), Integrin α6 shRNA plasmid (#sc-43129-SH), and control shRNA plasmid-A (#sc-108060) were purchased from Santa Cruz Biotechnology for knockdown of the target integrins. The knockdown efficiency was evaluated by western blotting.

[2] = system: HuH-7 cells; assay: Traction stress analysis; assay type: cell-based, human; settings: HuH-7 on PDMS, 12 hr, n = 18-21 cells
Experimental: mRuby-Lifeact-7 transfected HuH-7 cells were applied for the traction force microscopy experiments. The in situ fluorescent images of the cell was applied to define the area of measurement. The cells were seeded on a PDMS substrate functionalized with 0.2 µm FluoSpheres™ Carboxylate-Modified Microspheres (F8807, Invitrogen) at a density of approximately 6000 cells/cm^2. The substrate was fabricated by following the published protocol on (STAR) Protocol[45], except that there were no ECM proteins coated on the substrate here. […] After being pretreated with peptides for 12 hr, the samples were imaged by a 100×/1.35 Silicon UPlanSApo objective, and the bead displacement obtained from confocal imaging was converted into force-displacement fields following established protocol[47],[48]. Briefly, Images of beads with and without cell attachment were first aligned to correct experimental drift using ImageJ plugin “align slices in stack”. The displacement field was subsequently calculated by another ImageJ plugin “PIV (Particle Image Velocimetry)”. The cross-correlation PIV with a size of 64 × 32 pixels was used on all images for the PIV analysis to produce the position and vector field of the bead displacement. With the displacement field obtained from the PIV analysis, the traction force field was then reconstructed by the ImageJ plugin “FTTC”. […]

[3] = system: Rac1 in HuH-7 cells (RaichuEV-Rac1); assay: Rac1 activity by FRET; assay type: cell-based, human
Description: The mGFP-paxillin expression vector was a gift from A. Kusumi (Okinawa Institute of Science and Technology, Japan). pGFP-FAK and pEGFP-vinculin were gifts from Kenneth Yamada (RRID: Addgene_50513 and Addgene¬_50515)[39], EGFP-talin, mVenus-Integrin-Beta1 and mRuby-Lifeact-7 was a gift from Michael Davidson (RRID: Addgene_54560). pEGFPC1/Gg Vinculin 1-258 (akaVD1) was a gift from S. Craig (RRID: Addgene_46270)[40]. The Rac1 FRET Sensor, pCAGGS-RaichuEV-Rac1was generously provided by K. Aoki (National Institute for Basic Biology, Japan)[41] and the RhoA FRET sensor, DORA-RhoA was generously provided by Yi I. Wu (University of Connecticut Health Center, USA)[42]. The expression vectors for Rac1/Tiam1 activation system (Lyn11-linker-FRB, YFP-FKBP, YFP-FKBP-linker-Tiam1, and pTriEx-PA-Rac1) was generously provided by T. Inoue (Johns Hopkins University, USA)[43].

[4] = TEM imaging / preparation of peptide assemblies (nanofilament size and stability); assay type: physicochemical; settings: in water
Experimental: To prepare the stocks of peptide assembled nanofilaments, the required amount of peptide was dissolved in Milli-Q water at 100 mM (for FFF) or 10 mM (for the other peptides, and peptides mixture) and adjust the solution to reach a final pH of 7.0 using 1 N NaOH solution. To stabilize the peptide assemblies, the stock solutions were stored at room temperature for at least 24 h before application. The obtained nanofilaments were very stable and were not affected by simple dilution at neutral pH. Therefore, to prepare the working solution, the desired amount of stock solution was diluted using Milli-Q water or the culture medium. Stand the working solutions for 30 min to evenly distribute nanofilaments in the working solution before applying them to the experiments.
To prepare TEM samples, 5 μL peptide solution was dropped on a glow-charged copper grid (400 mesh) coated with carbon film. After removing excess solution, the grid was gently washed three times to remove excess nanofilaments. Then the sample grid was negatively stained using 1.0% (w/v) uranyl acetate and air-dried. TEM images were captured at a high vacuum using a transmission electron microscope (JEM-1230R, JEOL, Japan).

[5] = system: HuH-7 cells; assay: Random cell migration assay; assay type: cell-based, human
Experimental: HuH-7 cells were labeled with fluorescent protein fusion constructs or Hoechst 33342. After being treated with or without the peptides for 12 hr, the cells were tracked with a 20x/0.8 Plan-Apochromat objective for 6 h. The centroids of labeled cells were tracked using the TrackMate plugin (https://imagej.net/plugins/trackmate/) in ImageJ[44]. A custom MATLAB script generated by a person was applied to reconstruct the cell migration trajectory. […]
The directionality of the cell movement was described by the persistence index and the persistent time, the persistence index was defined by the ratio of the vectorial distance (the distance between the origin and the endpoint of the movement) and the length of the total path and the persistent time is defined as the time it takes for the cell to change the initial direction by 90°[45].

For “FFFIKLLI [assembling ligand: FFF coupled to the N-terminus of IKLLI; self-assembles into nanofilaments]”, the “suppression efficacy after knockdown of α3 or β1 integrin subunit” value [1] was “attenuated the suppression efficacy”, the “suppression efficacy after knockdown of α6 subunit (attenuated?)” value [1] was “did not” and the “Average Traction Stress” value [2] was 0.101 kPa. For the same sequence, the “Maximal Traction Stress” value [2] was 0.828 kPa, the “Rac1 activity, FRET/CFP” value ([3]; 12 hr, n = 50 cells, mean) was 1.262 and the “Rac1 activity” value ([3]; HuH-7) was “great inhibition; also recorded: global inhibition”. The nanofilament width ([4]; TEM, FFFIKLLI 100 μM) was ~ 100 nm, the nanofilament stability ([4]; neutral pH, simple dilution) was “stable” and the “cell motility, vin258-expressing cells” value ([5]; HuH-7 expressing vin258, 12 h) was “suppression effect on cell motility was remained”. It also gave a migration speed ([5]; Tiam1/Rac1-activated HuH-7, n = 230, 232 cells, p = 0.4508 vs Ctrl) of 0.3729 µm/min and a migration speed ([5]; vin258-transfected HuH-7, mean, n = 169, 176 cells) of 0.140 µm/min.
